Measurements reported in ChEMBL document CHEMBL4840333, “Ulleunganilines A-C, Trichostatin Analogues Bearing a Modified Side Chain from Streptomyces sp. 13F051” (J Nat Prod, 2021).
pIC50: −log10 of the molar value. Activity calls are given as the source filed them. The rule behind the calls is not given here.

Key:
SW480 = assay: Cytotoxicity against human SW480 cells assessed as reduction in cell viability incubated for 72 hrs by EZ-Cytox colorimetric assay; type: functional, cell-based; conditions: for pIC50: SW480, 72 h
U2OS = assay: Cytotoxicity against human U2OS cells assessed as reduction in cell viability incubated for 72 hrs by EZ-Cytox colorimetric assay; type: functional, cell-based
Histone deacetylase = assay: Inhibition of HDAC in human HeLa nuclear extract using Fluor de Lys as substrate incubated for 20 mins by fluorometric assay; type: subcellular, Nucleus
HeLa = assay: Cytotoxicity against human HeLa cells assessed as reduction in cell viability incubated for 72 hrs by EZ-Cytox colorimetric assay; type: functional, cell-based
A549 = assay: Cytotoxicity against human A549 cells assessed as reduction in cell viability incubated for 72 hrs by EZ-Cytox colorimetric assay; type: functional, cell-based; conditions: for pIC50: A549, 72 h
MDA-MB-231 = assay: Cytotoxicity against human MDA-MB-231 cells assessed as reduction in cell viability incubated for 72 hrs by EZ-Cytox colorimetric assay; type: functional, cell-based; conditions: for pIC50: MDA-MB-231, 72 h

SMILES | IC50 (Histone deacetylase) | pIC50 (SW480) | pIC50 (U2OS) | pIC50 (HeLa) | pIC50 (A549) | pIC50 (MDA-MB-231) | also measured
CC(/C=C/C(=O)N[C@@H](CCC(N)=O)C(=O)O)=C\[C@@H](C)C(=O)c1ccc(N(C)C)cc1 | > 100 µM |  |  |  |  |  | 
CC(/C=C/C(=O)Nc1ccc(C(=O)N[C@@H](CCC(N)=O)C(=O)O)cc1)=C\[C@@H](C)C(=O)c1ccc(N(C)C)cc1 | 19.96 µM | < 4.00 | < 4.00 | < 4.00 | < 4.00 | < 4.00 | 
CC(/C=C/C(N)=O)=C\[C@@H](C)C(=O)c1ccc(N(C)C)cc1 | > 100 µM |  |  |  |  |  | 
CC(/C=C/C(=O)N[C@@H](CCC(=O)O)C(=O)O)=C\[C@@H](C)C(=O)c1ccc(N(C)C)cc1 | > 100 µM |  |  |  |  |  | 
CC(/C=C/C(=O)NO)=C\[C@@H](C)C(=O)c1ccc(N(C)C)cc1 |  |  |  |  |  |  | Activity (HeLa): Active; Activity (A549): Active; Activity (MDA-MB-231): Active; Activity (SW480): Active; Activity (U2OS): Active
C[C@H](C[C@@H](C)C(=O)c1ccc(N(C)C)cc1)C(=O)O | 39.67 µM | < 4.00 | < 4.00 | < 4.00 | < 4.00 | < 4.00 | 
CNc1ccc(C(=O)[C@H](C)C[C@@H](C)C(=O)O)cc1 | > 100 µM | < 4.00 | < 4.00 | < 4.00 | < 4.00 | < 4.00 | 

Second part, led by results:

IC50 (Histone deacetylase) | SMILES | pIC50 (SW480) | pIC50 (U2OS) | pIC50 (HeLa) | pIC50 (A549) | pIC50 (MDA-MB-231) | also measured
23.63 µM | CC(/C=C/C(=O)NO[C@@H]1O[C@H](CO)[C@@H](O)[C@H](O)[C@H]1O)=C\[C@@H](C)C(=O)c1ccc(N(C)C)cc1 | 4.14 | 4.02 |  |  |  | 
95.13 µM | CC(/C=C/C(=O)O)=C\[C@@H](C)C(=O)c1ccc(N(C)C)cc1 [TRICHOSTATIC ACID] |  |  |  |  |  | 
> 100 µM | CNC(=O)/C=C/C(C)=C/[C@@H](C)C(=O)c1ccc(N(C)C)cc1 |  |  |  |  |  | 
